Results: ChEMBL document CHEMBL5113519, “Discovery of Novel Imidazo[4,5-c]quinoline Derivatives to Treat Inflammatory Bowel Disease (IBD) by Inhibiting Multiple Proinflammatory Signaling Pathways and Restoring Intestinal Homeostasis” (J Med Chem, 2022)
Active and inactive are the calls of the source. The calls are words filed in the database; no cut-off is given here.

Experiments:
[1] = molecular target: T1, Tyrosine-protein kinase JAK3 (Homo sapiens, UniProt P52333)
T1 sequence (P52333 whole entry): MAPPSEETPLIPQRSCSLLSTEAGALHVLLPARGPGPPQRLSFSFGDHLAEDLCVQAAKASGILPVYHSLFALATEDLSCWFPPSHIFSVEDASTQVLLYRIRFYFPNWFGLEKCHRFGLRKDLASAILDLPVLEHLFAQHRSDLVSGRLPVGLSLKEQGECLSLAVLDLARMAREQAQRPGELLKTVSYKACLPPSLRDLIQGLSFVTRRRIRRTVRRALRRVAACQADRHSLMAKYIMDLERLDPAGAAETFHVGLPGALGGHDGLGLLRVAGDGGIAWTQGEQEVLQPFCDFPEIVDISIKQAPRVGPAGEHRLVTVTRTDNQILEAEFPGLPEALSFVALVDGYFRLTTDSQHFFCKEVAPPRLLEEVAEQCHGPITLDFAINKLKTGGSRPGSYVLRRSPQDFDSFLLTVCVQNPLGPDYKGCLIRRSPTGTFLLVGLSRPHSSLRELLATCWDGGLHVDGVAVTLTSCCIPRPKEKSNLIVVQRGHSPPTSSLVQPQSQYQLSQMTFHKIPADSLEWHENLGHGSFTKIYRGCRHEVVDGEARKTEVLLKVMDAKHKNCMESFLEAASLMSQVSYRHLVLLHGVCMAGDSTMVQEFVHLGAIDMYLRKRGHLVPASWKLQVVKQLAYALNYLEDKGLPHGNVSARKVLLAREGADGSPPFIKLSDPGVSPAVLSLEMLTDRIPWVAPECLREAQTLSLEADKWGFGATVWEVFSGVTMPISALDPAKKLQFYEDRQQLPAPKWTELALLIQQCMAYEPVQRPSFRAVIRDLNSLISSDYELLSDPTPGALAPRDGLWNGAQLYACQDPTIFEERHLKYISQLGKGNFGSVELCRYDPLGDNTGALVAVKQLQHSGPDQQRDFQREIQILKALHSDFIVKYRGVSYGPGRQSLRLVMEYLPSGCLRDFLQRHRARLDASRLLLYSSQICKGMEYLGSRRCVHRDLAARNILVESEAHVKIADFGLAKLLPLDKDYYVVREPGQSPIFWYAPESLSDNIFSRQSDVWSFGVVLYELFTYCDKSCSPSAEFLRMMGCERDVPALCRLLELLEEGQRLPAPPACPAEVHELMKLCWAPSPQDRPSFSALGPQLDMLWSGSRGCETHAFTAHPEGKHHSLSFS
Description: Inhibition of JAK3 (unknown origin) using Kinase/Tyr 6 peptide as substrate incubated for 1 hrs in presence of ATP by fluorescence microplate reader analysis

[2] = molecular target: Tyrosine-protein kinase JAK1 (Homo sapiens, UniProt P23458); assay: Inhibition of JAK1 (unknown origin) using Kinase/Tyr 6 peptide as substrate incubated for 1 hrs in presence of ATP by fluorescence microplate reader analysis
Tyrosine-protein kinase JAK1, sequence (P23458 whole entry): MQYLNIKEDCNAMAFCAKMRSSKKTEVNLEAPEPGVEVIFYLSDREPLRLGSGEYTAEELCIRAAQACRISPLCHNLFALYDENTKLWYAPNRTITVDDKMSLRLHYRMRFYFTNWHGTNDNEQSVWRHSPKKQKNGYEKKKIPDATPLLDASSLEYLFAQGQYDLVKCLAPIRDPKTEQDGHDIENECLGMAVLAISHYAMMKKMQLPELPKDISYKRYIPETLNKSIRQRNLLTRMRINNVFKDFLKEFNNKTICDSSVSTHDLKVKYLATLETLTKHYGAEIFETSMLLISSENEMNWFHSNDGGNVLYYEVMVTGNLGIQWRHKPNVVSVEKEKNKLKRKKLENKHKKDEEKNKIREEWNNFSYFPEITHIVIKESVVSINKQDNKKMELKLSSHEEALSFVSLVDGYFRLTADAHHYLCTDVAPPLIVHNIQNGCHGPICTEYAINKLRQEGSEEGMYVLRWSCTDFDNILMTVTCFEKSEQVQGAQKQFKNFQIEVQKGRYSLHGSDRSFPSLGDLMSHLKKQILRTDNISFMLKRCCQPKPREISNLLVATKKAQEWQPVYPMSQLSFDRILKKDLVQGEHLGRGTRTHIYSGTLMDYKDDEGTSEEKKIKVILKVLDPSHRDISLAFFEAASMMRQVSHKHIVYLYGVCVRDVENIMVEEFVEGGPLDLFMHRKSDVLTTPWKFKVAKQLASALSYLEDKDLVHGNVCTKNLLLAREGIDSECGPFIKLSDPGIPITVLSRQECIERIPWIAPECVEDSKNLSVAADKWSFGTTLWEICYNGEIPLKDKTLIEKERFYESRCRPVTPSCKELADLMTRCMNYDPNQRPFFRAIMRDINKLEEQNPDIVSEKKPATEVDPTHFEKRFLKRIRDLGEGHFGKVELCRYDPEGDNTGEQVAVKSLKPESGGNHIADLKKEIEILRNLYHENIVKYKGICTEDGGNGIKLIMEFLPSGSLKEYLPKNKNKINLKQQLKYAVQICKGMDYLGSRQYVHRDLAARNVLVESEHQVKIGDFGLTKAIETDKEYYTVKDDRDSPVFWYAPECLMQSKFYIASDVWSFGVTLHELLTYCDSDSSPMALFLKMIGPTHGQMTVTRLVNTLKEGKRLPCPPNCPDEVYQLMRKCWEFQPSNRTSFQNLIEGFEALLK

[3] = molecular target: Tyrosine-protein kinase JAK2 (Homo sapiens, UniProt O60674)
Tyrosine-protein kinase JAK2, sequence (O60674 whole entry): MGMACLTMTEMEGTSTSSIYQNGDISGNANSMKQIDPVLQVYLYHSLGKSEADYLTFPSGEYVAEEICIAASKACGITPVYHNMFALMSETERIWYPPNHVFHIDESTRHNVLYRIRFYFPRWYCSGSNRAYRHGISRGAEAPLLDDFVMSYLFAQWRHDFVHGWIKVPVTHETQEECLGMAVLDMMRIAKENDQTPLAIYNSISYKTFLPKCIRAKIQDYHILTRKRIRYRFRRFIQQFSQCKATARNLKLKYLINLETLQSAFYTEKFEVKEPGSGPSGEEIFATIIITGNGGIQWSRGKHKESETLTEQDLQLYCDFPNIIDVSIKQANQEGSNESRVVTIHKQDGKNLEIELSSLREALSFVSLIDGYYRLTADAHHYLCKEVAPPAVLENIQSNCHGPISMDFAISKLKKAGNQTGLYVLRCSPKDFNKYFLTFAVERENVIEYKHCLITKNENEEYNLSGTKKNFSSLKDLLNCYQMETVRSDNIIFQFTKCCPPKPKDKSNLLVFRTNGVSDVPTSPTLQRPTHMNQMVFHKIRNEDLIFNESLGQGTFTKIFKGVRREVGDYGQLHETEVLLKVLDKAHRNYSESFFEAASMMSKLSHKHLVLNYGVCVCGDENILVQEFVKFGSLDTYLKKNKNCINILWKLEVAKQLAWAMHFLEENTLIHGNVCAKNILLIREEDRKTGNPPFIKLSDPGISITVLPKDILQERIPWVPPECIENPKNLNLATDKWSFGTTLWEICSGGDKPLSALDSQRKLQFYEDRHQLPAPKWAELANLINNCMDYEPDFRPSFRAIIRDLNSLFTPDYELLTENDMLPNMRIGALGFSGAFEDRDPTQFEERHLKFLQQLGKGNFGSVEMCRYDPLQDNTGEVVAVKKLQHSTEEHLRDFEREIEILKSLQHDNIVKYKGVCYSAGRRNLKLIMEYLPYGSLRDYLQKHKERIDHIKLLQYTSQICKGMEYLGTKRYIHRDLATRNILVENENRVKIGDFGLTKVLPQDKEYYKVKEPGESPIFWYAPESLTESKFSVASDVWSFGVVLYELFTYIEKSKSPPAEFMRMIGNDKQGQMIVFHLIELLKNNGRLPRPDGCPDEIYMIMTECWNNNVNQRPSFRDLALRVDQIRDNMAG
Description: Inhibition of JAK2 (unknown origin) using Kinase/Tyr 6 peptide as substrate incubated for 1 hrs in presence of ATP by fluorescence microplate reader analysis

[4] = Cytotoxicity against human THP1-Dual cells assessed as inhibition of cell growth measured after 24 hrs by CCK-8 method; format: toxicity, cell-based
[5] = molecular target: Nuclear factor NF-kappa-B complex (Homo sapiens, UniProt P19838+Q00653+Q04206); assay: Inhibition of NF kappa B activation (unknown origin); format: protein-complex assay
Nuclear factor NF-kappa-B complex, sequence (P19838 1-433 limits assumed): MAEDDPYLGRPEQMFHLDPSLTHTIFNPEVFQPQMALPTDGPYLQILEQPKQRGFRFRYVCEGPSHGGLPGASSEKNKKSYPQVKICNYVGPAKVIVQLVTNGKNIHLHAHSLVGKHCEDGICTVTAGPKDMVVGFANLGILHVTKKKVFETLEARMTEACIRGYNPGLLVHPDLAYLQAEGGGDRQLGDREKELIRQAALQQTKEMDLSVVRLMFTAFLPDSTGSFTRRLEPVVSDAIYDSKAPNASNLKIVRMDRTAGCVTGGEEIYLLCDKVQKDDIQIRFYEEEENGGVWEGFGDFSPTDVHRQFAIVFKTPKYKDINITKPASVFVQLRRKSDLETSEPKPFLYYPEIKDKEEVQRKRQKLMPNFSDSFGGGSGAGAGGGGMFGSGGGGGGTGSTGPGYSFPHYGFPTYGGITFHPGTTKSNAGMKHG
Nuclear factor NF-kappa-B complex, sequence (Q00653 1-454 limits assumed): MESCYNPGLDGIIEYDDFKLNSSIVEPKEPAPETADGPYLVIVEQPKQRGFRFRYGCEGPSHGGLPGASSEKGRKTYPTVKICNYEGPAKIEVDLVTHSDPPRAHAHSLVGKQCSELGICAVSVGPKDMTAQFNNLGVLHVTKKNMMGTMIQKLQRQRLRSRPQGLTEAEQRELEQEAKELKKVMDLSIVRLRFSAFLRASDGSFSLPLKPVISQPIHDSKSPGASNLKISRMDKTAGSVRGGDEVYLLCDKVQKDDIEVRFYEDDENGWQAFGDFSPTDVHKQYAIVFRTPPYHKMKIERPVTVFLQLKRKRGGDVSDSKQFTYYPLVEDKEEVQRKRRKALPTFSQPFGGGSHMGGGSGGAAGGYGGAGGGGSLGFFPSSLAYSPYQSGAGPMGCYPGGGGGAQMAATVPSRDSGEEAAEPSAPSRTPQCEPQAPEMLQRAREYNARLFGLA
Nuclear factor NF-kappa-B complex, sequence (Q04206 whole entry): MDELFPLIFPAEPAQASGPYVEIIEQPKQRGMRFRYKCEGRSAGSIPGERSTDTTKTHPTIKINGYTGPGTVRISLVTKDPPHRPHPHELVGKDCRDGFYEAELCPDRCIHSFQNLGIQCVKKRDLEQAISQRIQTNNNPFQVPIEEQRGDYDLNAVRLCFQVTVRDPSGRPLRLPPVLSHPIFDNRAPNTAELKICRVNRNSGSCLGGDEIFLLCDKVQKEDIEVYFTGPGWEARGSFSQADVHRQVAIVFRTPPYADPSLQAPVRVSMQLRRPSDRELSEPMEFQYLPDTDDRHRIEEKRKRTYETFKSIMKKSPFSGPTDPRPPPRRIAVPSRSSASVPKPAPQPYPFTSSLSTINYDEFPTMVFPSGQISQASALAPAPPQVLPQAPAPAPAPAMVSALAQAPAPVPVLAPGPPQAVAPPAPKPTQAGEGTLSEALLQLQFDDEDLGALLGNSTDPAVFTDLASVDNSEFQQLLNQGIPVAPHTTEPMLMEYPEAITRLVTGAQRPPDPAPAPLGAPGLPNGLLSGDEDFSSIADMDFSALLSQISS

[6] = tested on: Mus musculus; assay: Anti-inflammatory activity in TNBS induced IBD BALB/c mouse model assessed as reduction in bloody stool by measuring disease activity index score at 100 mg/kg via oral gavage administered daily for 12 days; format: functional, organism-based; settings: time 12.0 day
[7] = tested on: Mus musculus; assay: Anti-inflammatory activity in TNBS induced IBD BALB/c mouse model assessed as reduction in stool softness by measuring disease activity index score at 100 mg/kg via oral gavage administered daily for 12 days; format: functional, organism-based; settings: time 12.0 day
[8] = tested on: Mus musculus; assay: Antiinflammatory activity in DSS-induced acute colitis C57BL/6 mouse model assessed as reduction in colon villi integrity in colon by measuring histopathological score at 100 mg/kg, po by H and E staining based analysis; format: functional, organism-based
[9] = tested on: Mus musculus; assay: Anti-inflammatory activity in TNBS induced IBD BALB/c mouse model assessed as reduction in weight by measuring disease activity index score at 100 mg/kg via oral gavage administered daily for 12 days measured daily; format: functional, organism-based; settings: time 12.0 day
[10] = tested on: Mus musculus; assay: Antiinflammatory activity in DSS-induced acute colitis C57BL/6 mouse model assessed as reduction in intestinal edema in colon by measuring histopathological score at 100 mg/kg, po by H and E staining based analysis; format: functional, organism-based
[11] = tested on: Mus musculus; assay: Antiinflammatory activity in DSS-induced acute colitis C57BL/6 mouse model assessed as reduction in inflammatory cell infiltration in colon by measuring histopathological score at 100 mg/kg, po by H and E staining based analysis; format: functional, organism-based
[12] = tested on: Mus musculus; assay: Antiinflammatory activity in DSS-induced acute colitis C57BL/6 mouse model assessed as reduction in number of goblet cells in colon by measuring histopathological score at 100 mg/kg, po by H and E staining based analysis; format: functional, organism-based
[13] = tested on: Mus musculus; assay: Antiinflammatory activity in DSS-induced acute enteritis C57BL mouse model assessed as suppression of DSS induced weight loss at 100 mg/kg, po administered daily and measured upto 11 days relative to control; format: functional; settings: time <= 11 day
[14] = tested on: Mus musculus; assay: Antiinflammatory activity in DSS-induced acute colitis C57BL/6 mouse model assessed as reduction in lamina propria damage in colon by measuring histopathological score at 100 mg/kg, po by H and E staining based analysis; format: functional, organism-based

Which results are given for `Cc1nc2cnc3ccc(-c4cc(Cl)c(O)c(Cl)c4)cc3c2n1[C@H]1CC[C@H](N(C)C)CC1`?
IC50 [1]: 63 nM; IC50 [2]: 16.7 nM

With `Cc1nc2cnc3ccc(-c4ccc(O)c(F)c4)cc3c2n1C1CCN(C)CC1` as the compound, how does the IC50 [3] read?
Its IC50 is over 500 nM.

What about the IC50 [1] of the same compound?
Its IC50 is over 500 nM.

What about the IC50 [2] of the same compound?
Its IC50 is 30 nM.

What does the source list for `Cc1nc2cnc3ccc(-c4cc(Cl)c(O)c(Cl)c4)cc3c2n1C1CCN(CN(C)C)CC1`?
IC50 [1]: 62 nM; IC50 [2]: 7.4 nM

Which results are given for `Cc1nc2cnc3ccc(-c4cc(Cl)c(O)c(Cl)c4)cc3c2n1C1CCOCC1`?
IC50 [3]: 22.6 nM; IC50 [1]: 20.8 nM; IC50 [2]: 6.8 nM

What does the source list for `Cc1nc2cnc3ccc(-c4cc(Cl)c(O)c(Cl)c4)cc3c2n1[C@@H]1CCCN(C)C1`?
IC50 [3]: 13.5 nM; IC50 at 24 h [4]: 2000 nM; IC50 [1]: 3.2 nM; IC50 [2]: 2.6 nM

With `Cc1nc2cnc3ccc(-c4ccc(O)c(Cl)c4)cc3c2n1C1CCN(C)CC1` as the compound, how does the IC50 [1] read?
Its IC50 is over 500 nM.

And the IC50 [2]?
The IC50 was 42.3 nM.

With `O=C(c1ccccc1)c1ccc2nc(NC(=O)c3csc(C4CCN(c5ncnc6ccsc56)CC4)n3)[nH]c2c1` as the compound, how does the IC50 [5] read?
The IC50 was 200 nM.

Which IC50 [3] does the source give for `Cc1nc2cnc3ccc(-c4cc(F)c(O)c(Cl)c4)cc3c2n1C1CCN(C)CC1` here?
Its IC50 is 136 nM.

And the IC50 [1]?
Its IC50 is 127 nM.

And the IC50 [2]?
Its IC50 is 11.9 nM.

For `Cc1nc2cnc3ccc(-c4ccc(O)c(C#N)c4)cc3c2n1C1CCN(C)CC1`, which IC50 [1] is on record?
Its IC50 is over 500 nM.

What about the IC50 [2] of the same compound?
Its IC50 is 236 nM.

With `Cc1nc2cnc3ccc(-c4cc(Cl)c(O)c(Cl)c4)cc3c2n1[C@H]1CCCN(C)C1` as the compound, how does the IC50 [1] read?
Its IC50 is 19.6 nM.

What about the IC50 [2] of the same compound?
Its IC50 is 5.5 nM.

With `Cc1nc2cnc3ccc(-c4cc(Cl)c(O)c(Cl)c4)cc3c2n1[C@H]1CC[C@H](O)CC1` as the compound, how does the IC50 [1] read?
Its IC50 is 20.2 nM.

And the IC50 [2]?
The IC50 was 9.9 nM.

Which IC50 [1] does the source give for `Cc1nc2cnc3ccc(-c4ccc(O)cc4)cc3c2n1C1CCN(C)CC1` here?
The IC50 was over 500 nM.

What about the IC50 [2] of the same compound?
The IC50 was 560 nM.

What does the source list for `Cc1cc(-c2ccc3ncc4nc(C)n(C5CCN(C)CC5)c4c3c2)cc(C)c1O`?
IC50 [1]: > 500 nM; IC50 [2]: 100 nM

Which results are given for `Cc1nc2cnc3ccc(-c4cc(F)c(O)c(F)c4)cc3c2n1C1CCN(C)CC1`?
IC50 [3]: > 500 nM; IC50 [1]: > 500 nM; IC50 [2]: 19.4 nM

With `Cc1nc2cnc3ccc(-c4ccc(O)cc4Cl)cc3c2n1C1CCN(C)CC1` as the compound, how does the IC50 [1] read?
Its IC50 is over 500 nM.

What about the IC50 [2] of the same compound?
Its IC50 is 386 nM.

With `Cc1nc2cnc3ccc(-c4ccc5c(c4)OCCO5)cc3c2n1C1CCN(C)CC1` as the compound, how does the IC50 [2] read?
Its IC50 is over 500 nM.

What does the source list for `Nc1ccc(O)c(C(=O)O)c1` [MESALAMINE]?
Activity [6]: Active; Activity [7]: Active; Activity [8]: Active; Activity [9]: Active; Activity [10]: Active; Activity [11]: Active; Activity [12]: Active; Activity [13]: 11.69%; Activity [14]: Active

Which IC50 [2] does the source give for `Cc1nc2cnc3ccc(-c4ccccc4O)cc3c2n1C1CCN(C)CC1` here?
The IC50 was over 500 nM.

With `COc1cc(-c2ccc3ncc4nc(C)n(C5CCN(C)CC5)c4c3c2)ccc1O` as the compound, how does the IC50 [1] read?
The IC50 was over 500 nM.

What about the IC50 [2] of the same compound?
The IC50 was 776 nM.

For `Cc1nc2cnc3ccc(-c4ccc(O)cc4F)cc3c2n1C1CCN(C)CC1`, which IC50 [1] is on record?
Its IC50 is over 500 nM.

And the IC50 [2]?
Its IC50 is 237 nM.

With `Cc1nc2cnc3ccc(-c4ccc(F)c(O)c4)cc3c2n1C1CCN(C)CC1` as the compound, how does the IC50 [2] read?
The IC50 was over 500 nM.

With `Cc1nc2cnc3ccc(-c4cc(Cl)cc(Cl)c4)cc3c2n1C1CCN(C)CC1` as the compound, how does the IC50 [1] read?
The IC50 was over 500 nM.

What about the IC50 [2] of the same compound?
Its IC50 is over 500 nM.

Which IC50 [2] does the source give for `Cc1nc2cnc3ccc(-c4ccc(N5CCOCC5)cc4)cc3c2n1C1CCN(C)CC1` here?
The IC50 was over 500 nM.

With `Cc1nc2cnc3ccc(-c4cc(Cl)c(O)c(Cl)c4)cc3c2n1[C@H]1CC[C@H](CO)CC1` as the compound, how does the IC50 [3] read?
Its IC50 is 12.6 nM.

What about the IC50 [1] of the same compound?
Its IC50 is 15.4 nM.

What about the IC50 [2] of the same compound?
The IC50 was 7.2 nM.

What does the source list for `Cc1nc2cnc3ccc(-c4ccc(O)c(C(F)(F)F)c4)cc3c2n1C1CCN(C)CC1`?
IC50 [1]: > 500 nM; IC50 [2]: > 500 nM

For `Cc1nc2cnc3ccc(-c4cc(Cl)c(O)c(Cl)c4)cc3c2n1C1CCCN(C)C1` (stereo not drawn), which IC50 [1] is on record?
The IC50 was 4.9 nM.

And the IC50 [2]?
The IC50 was 6.6 nM.

With `Cc1cc(-c2ccc3ncc4nc(C)n(C5CCN(C)CC5)c4c3c2)ccc1O` as the compound, how does the IC50 [1] read?
The IC50 was over 500 nM.

What about the IC50 [2] of the same compound?
Its IC50 is 435 nM.
